Values of other authors in US20190321427A1, “Compositions to Treat Anal Fissures” (G&S Laboratories, Inc., priority 2018, published 2019).
Where two headings read alike, the source gives them in different places.

Tested on: anal fissures

Compound | healing rates (anal fissure, literature (Poh, 2010)) | common side effect (topical treatment of anal fissure) | healing rates (in vivo)
O=[N+]([O-])OCC(CO[N+](=O)[O-])O[N+](=O)[O-] [nitroglycerin] | 40-70% | headache | –
botulinum toxin | – | – | 30-96%
